# Data: patent publication US20060173067A1, “Small molecules for the treatment of atherosclerosis” (The Regents of the University of California, priority 2004, published 2006)
# “Also recorded” adds a separate entry of the source. Where a SMILES comes first, the peptide text is derived from it. [ ]: non-standard residue; d: D form. The star is where a group is joined. Boc = CC(C)(C)OC(=O)*; OtBu = CC(C)(C)O*; tBu = CC(C)(C)*
# How the values were obtained:
# [1] = test system: LDL-induced monocyte chemotactic activity in human artery wall cocultures; assay: Monocyte chemotactic activity in human artery wall cell coculture with HDL of peptide-fed apoE null mice; type: in vivo; settings: female apoE null mice, 200 μg/gm chow, 15 weeks, 50 μg/mL mouse HDL, FIG. 13
# From the text: Lipoproteins, human artery wall cocultures, and monocytes can be prepared and monocyte chemotactic activity (MCA) determined as previously described (Van Lenten et al. (2002) Circulation, 106: 1127-1132). Induction of MCA by a standard control LDL can be determined in the absence or presence of the subject's HDL. Values in the absence of HDL are typically normalized to 1.0. Values greater than 1.0 after the addition of HDL indicate pro-inflammatory HDL; values less than 1.0 indicate anti-inflammatory HDL.
# (§1) Female apoE null mice at age 8 weeks were given no additions to their diet (Chow) or received 200 μg/gm chow of SEQ ID NO:3 (+254) or 200 μg/gm chow of SEQ ID NO: 4 (+258), both synthesized from all D-amino acids. After 15 weeks the mice were bled and their plasma fractionated by FPLC and their HDL (mHDL) tested in a human artery wall cell coculture. A standard human LDL (at 100 μg/mL of LDL-cholesterol) was added alone (LDL) or not added (no addition) or was added with 50 μg/mL of normal human HDL (hHDL) or 50 μg/mL of mouse HDL (mHDL) to human artery wall cocultures and the resulting monocyte chemotactic activity was determined and plotted on the Y-axis.
# [2] = Solubility of peptides in ethyl acetate; type: physicochemical; settings: 10 mg/mL added, room temperature 30 minutes, FIG. 3
# Experimental: To evaluate solubility in ethyl acetate, each peptide was weighed and added to a centrifuge tube and ethyl acetate (HPLC grade; residue after evaporation <0.0001%) was added to give a concentration of 10 mg/mL. The tubes were sealed, vortexed and kept at room temperature for 30 minutes with vortexing every 10 minutes. The tubes were then centrifuged for 5 minutes at 10,000 rpm and the supernatant was removed to a previously weighed tube. The ethyl acetate was evaporated under argon and the tubes weighed to determine the amount of peptide that had been contained in the supernatant. The percent of the originally added peptide that was dissolved in the supernatant is shown on the Y-axis. he data are mean±S.D. Control represents sham treated tubes; SEQ ID NO:3 and SEQ ID NO:4 were both synthesized from all D-amino acids. The sequence Boc-Phe-Arg-Glu-Leu-OtBu (SEQ ID NO:5, SEQ ID NO:250 in copending application U.S. Ser. No. 10/649,378) was synthesized from all L-amino acids.
# [3] = Interaction of peptide with DMPC in an aqueous environment (dialysis, negative-stain electron micrograph); type: physicochemical; settings: for appearance of solution after dialysis (deoxycholate removed): DMPC: peptide 1:10 wt:wt in PBS; for Bilayer dimension of stacked bilayers / Spacing between bilayers in the stack / Vesicular structures, size: DMPC: peptide 1:10 wt:wt, aqueous environment
# Experimental: FIG. 4 SEQ ID NO:4 forms 7.5 nm particles when mixed with DMPC in an aqueous environment. To 1 mg/ml of DMPC suspension in phosphate buffered saline (PBS) was added 10% deoxycholate until the DMPC was dissolved. SEQ ID NO: 4 or SEQ ID NO:3 were added (DMPC: peptide; 1:10; wt:wt) and the reaction mixture dialyzed. […] The figure is an electron micrograph prepared with negative staining and at 147,420× magnification. The arrows indicate SEQ ID NO: 4 particles measuring 7.5 nm (they appear as small white particles).
# To 1 mg/ml of DMPC suspension in phosphate buffered saline (PBS) was added 10% deoxycholate until the DMPC was dissolved. Peptides, SEQ ID NO:4 or SEQ ID NO:3, were added (DMPC: peptide; 1:10; wt:wt) and the reaction mixture dialyzed.
# apoE null mice [4] = assay: Atherosclerosis in apoE null mice fed peptide in chow for 15 weeks; type: in vivo; settings: female apoE null mice, 200 μg/gm chow
# Experimental: The aortic root (aortic sinus) lesion score was determined in the apoE null mice described in FIG. 13. The number of mice in each group is shown (n=) at the bottom of the figure and a representative section for each group is shown at the top of the figure.
# The percent aortic surface containing atherosclerotic lesions was determined in en face preparations in the apoE null mice described in FIG. 13. The number of mice in each group is shown (n=) at the bottom of the left panel and a representative aorta for mice fed chow alone or chow supplemented with. SEQ ID NO:4 is shown in the right panel.
# as §1
# apoE null mice [5] = assay: Atherosclerosis in apoE null mice fed SEQ ID NO:5 in chow for 12 weeks; type: in vivo; settings: 200 μg/gm chow, p=0.012, FIG. 16
# [6] = Interaction of peptide with DMPC in an aqueous environment (dialysis, negative-stain electron micrograph); type: physicochemical; settings: DMPC: peptide 1:10 wt:wt
# [7] = Solubility in aqueous buffer at pH 7.0; type: physicochemical; settings: pH 7.0, data not shown
SMILES,HDL rendered anti-inflammatory (monocyte chemotactic activity) [1],solubility in ethyl acetate [2],appearance of solution after dialysis (deoxycholate removed) [3],"formation of 7.5 nm particles, stacked lipid-peptide bilayers, 38 nm vesicular structures ([3]; conditions of FIG. 4, data not shown)","aortic root (aortic sinus) atherosclerosis, lesion score (apoE null mice [4]; FIG. 14)","aortic atherosclerosis in en face preparations, percent aortic surface containing lesions (apoE null mice [4]; FIG. 15)",% Aortic Surface Area with Lesions in en face preparations (apoE null mice [5]),HDL rendered anti-inflammatory (monocyte chemotactic activity) ([1]; listed as SEQ ID NO: 4),Bilayer dimension of stacked bilayers [3] [nm],Spacing between bilayers in the stack [3],"Vesicular structures, size [3]","Vesicular structures, size ([3]; listed as SEQ ID NO: 4)",Bilayer dimension of stacked bilayers ([3]; listed as SEQ ID NO: 6),Spacing between bilayers in the stack ([3]; listed as SEQ ID NO: 6) [nm],"Vesicular structures, size ([3]; listed as SEQ ID NO: 6) [nm]","diameter of particles formed with DMPC (Size ""Nascent HDL Particles"") ([6]; listed as SEQ ID NO: 4)","diameter of particles formed with DMPC (Size ""Nascent HDL Particles"") ([6]; listed as SEQ ID NO: 6) [nm]","aortic root (aortic sinus) atherosclerosis, lesion score (apoE null mice [4]; FIG. 14, listed as SEQ ID NO: 4)","aortic atherosclerosis in en face preparations, percent aortic surface containing lesions (apoE null mice [4]; FIG. 15, listed as SEQ ID NO: 4)",solubility in aqueous buffer at pH 7.0 [7]
"CC(C)(C)OC[C@@H](NC(=O)[C@@H](CCCNC(=N)N)NC(=O)[C@@H](CCC(=O)O)NC(=O)[C@@H](CCCCNC(=O)OC(C)(C)C)NC(=O)OC(C)(C)C)C(=O)OC(C)(C)C [SEQ ID NO:3, Boc-Lys(εBoc)-Glu-Arg-Ser(tBu)-OtBu] (Boc-[dK](Boc)[dE][dR][dS](tBu)-OtBu)",not,poorly soluble,turbid,did not form,not,not,,,,,,,,,,,,,,
"CC(C)C[C@H](NC(=O)[C@H](CCC(=O)O)NC(=O)[C@H](CCCNC(=N)N)NC(=O)[C@H](Cc1ccccc1)NC(=O)OC(C)(C)C)C(=O)OC(C)(C)C [SEQ ID NO:5, Boc-Phe-Arg-Glu-Leu-OtBu] (Boc-FREL-OtBu)",,very soluble,,,,,significantly decreases atherosclerosis,,,,,,,,,,,,,
"CC(C)(C)OC[C@@H](NC(=O)[C@@H](CCC(=O)O)NC(=O)[C@@H](CCCNC(=N)N)NC(=O)[C@@H](CCCCNC(=O)OC(C)(C)C)NC(=O)OC(C)(C)C)C(=O)OC(C)(C)C [SEQ ID NO:4, Boc-Lys(εBoc)-Arg-Glu-Ser(tBu)-OtBu] (Boc-[dK](Boc)[dR][dE][dS](tBu)-OtBu)",renders apoE null HDL anti-inflammatory,very soluble; also recorded: highly soluble,remained clear,,significantly decreases,significantly decreases,,rendered anti-inflammatory,3.4 to 4.1,approximately 2 nm,approximately 38 nm,approximately 38 nm,3.4-4.1 nm,2.0,38,approximately 7.5 nm,7.5,significantly reduced,significantly decreased,soluble
